Patent US9676786B2, “Pharmacologically active compounds” (The University of Liverpool, priority 2013, dated 2017)

Tests used:
[1] = target: α1 glycine receptor (Homo sapiens (Human), UniProt P23415); test: Expression and electrophysiological characterization of glycine receptor activity (patch/voltage clamp); format: cell-based; details: modulation of agonist induced currents at glycine EC20; means ± s.d.
Method: Human embryonic kidney (HEK) 293 cells (ATCC CRL 1573) and/or Xenopus laevis oocytes were used for expressing the human a1-3 glycine receptor subunit as well as human a1, b3, g2 GABA receptor subunit cDNAs inserted into mammalian expression vectors. Patch- and voltage-clamp recording from receptor expressing cells was performed at a holding potential of −70 mV in normal Ringer solution and digitized for analyses. Dose-response curves of agonist induced peak currents (I) were normalized to the maximal current value obtained and fitted with the sigmoidal Hill equation using a Gauss Marquardt iteration, where EC50 represents the glycine/GABA concentration resulting in a half maximal response. Effects of the compounds tested on agonist induced currents were analysed after superfusing the cells with the respective compound for 5 seconds prior to and during agonist application and dose-response curves of modulated currents were determined in the presence of agonist concentrations eliciting a response corresponding to 20% of the maximal inducible current (EC20 value). Results represent means±s.d. and the significance of the data was evaluated using Student's paired t test and considered to be statistically significant at P<0.05.

[2] = system: neuropathic rats; test: Mechanical hyperalgesia, paw withdrawal thresholds in neuropathic rats (partial sciatic nerve ligation); format: in vivo, rat; details: neuropathic Wistar rats; positive control
Source text: (§1) The wound was closed with skin clips.
(§2) Control animals received vehicle alone.

[3] = system: neuropathic rats; test: Cold sensitivity (10° C. cold plate), paw withdrawal latencies in neuropathic rats; format: in vivo, rat; details: neuropathic Wistar rats; positive control
Source text: as §1, §2

Chain of α1 glycine receptor (P23415 29-457 limits assumed): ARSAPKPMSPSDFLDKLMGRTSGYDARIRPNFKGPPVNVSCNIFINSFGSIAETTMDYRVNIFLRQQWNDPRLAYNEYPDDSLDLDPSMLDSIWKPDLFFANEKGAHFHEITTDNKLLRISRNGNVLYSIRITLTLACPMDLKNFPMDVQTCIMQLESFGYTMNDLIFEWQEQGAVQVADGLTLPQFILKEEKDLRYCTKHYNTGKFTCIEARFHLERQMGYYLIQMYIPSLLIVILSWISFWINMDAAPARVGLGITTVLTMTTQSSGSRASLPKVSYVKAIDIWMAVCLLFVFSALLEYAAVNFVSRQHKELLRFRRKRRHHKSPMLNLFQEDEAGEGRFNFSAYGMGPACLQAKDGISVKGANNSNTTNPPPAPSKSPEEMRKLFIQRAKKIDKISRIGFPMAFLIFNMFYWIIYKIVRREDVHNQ

| SMILES | EC50 [1] | Reversal, mechanical (positive control) [2] | Reversal, cold (positive control) [3] |
| --- | --- | --- | --- |
| CC(C)c1cc(C(=O)N2CC(F)C2)cc(C(C)C)c1O [Example 3, (3-Fluoroazetidin-1-yl)(4-hydroxy-3,5-diisopropylphenyl) methanone] | 0.43 nM |  |  |
| Nc1nnc(-c2cccc(Cl)c2Cl)c(N)n1 [lamotrigine, reference compound] |  | 65% | 72% |
| CC(C)c1cc(C(=O)N2CCN(C)CC2)cc(C(C)C)c1O [Example 6, (4-Hydroxy-3-5-diisopropylphenyl)(4-methylpiperazin-1-yl)methanone] | 0.0012 nM |  |  |
